Measured values as given in patent US5621133A (priority 1995, dated 1997).

What was measured:
dopamine D-2 receptor = dopamine D-2 receptor (Rattus norvegicus, UniProt P61169); experiment: biochemical; format: binding; details: rat caudate, [125I]-p-aminophenylethyl spiroperidol; read-out: D-2 Ki
Description: Homogenized rat caudate was the source of the D-2 receptors. […] The molar affinity of the compound for the receptor binding site was calculated by the same method used for the D-1 receptor assay, assuming a competitive interaction between the compound and the radiolabeled ligand.

dopamine D-1 receptor [1] = details: for Intrinsic Activity (adenylate cyclase assay): dopamine = 100, goldfish retina or rat striatum; for EC50: read-out: EC50 (agonist activity in adenylate cyclase assay), tissue from goldfish retina or rat striatum
Description: In order to determine agonist activity, cell-free tissue homogenates are incubated in an ionic buffer solution containing ATP and the compound being evaluated. The tissue was obtained from either goldfish retina or rat striatum.

dopamine D-1 receptor [2] = biological target: dopamine D-1 receptor (Rattus norvegicus, UniProt P18901); experiment: biochemical; details: D-1 Ki, rat caudate, [125I]SCH-23982
Chain of dopamine D-1 receptor (Rattus norvegicus, UniProt P18901) (P18901 whole entry): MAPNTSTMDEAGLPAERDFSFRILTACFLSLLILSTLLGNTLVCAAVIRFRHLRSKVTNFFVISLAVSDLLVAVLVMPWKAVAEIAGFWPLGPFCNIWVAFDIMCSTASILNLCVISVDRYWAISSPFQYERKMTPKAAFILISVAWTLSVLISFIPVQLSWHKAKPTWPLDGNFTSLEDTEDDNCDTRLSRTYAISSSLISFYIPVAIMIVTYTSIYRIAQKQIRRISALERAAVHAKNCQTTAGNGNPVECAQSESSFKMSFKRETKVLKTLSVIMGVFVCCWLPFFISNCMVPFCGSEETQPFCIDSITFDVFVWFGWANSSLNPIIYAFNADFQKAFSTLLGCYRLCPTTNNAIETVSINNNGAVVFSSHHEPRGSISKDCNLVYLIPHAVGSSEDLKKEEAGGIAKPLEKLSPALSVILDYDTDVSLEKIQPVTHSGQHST
Description: The compounds compete with the radiolabeled ligand for occupancy of the receptors and the molar potency of each compound was quantified.
The Ki values are inversely proportional to the affinity of the compound for the receptor.

Chain of dopamine D-2 receptor (P61169 whole entry): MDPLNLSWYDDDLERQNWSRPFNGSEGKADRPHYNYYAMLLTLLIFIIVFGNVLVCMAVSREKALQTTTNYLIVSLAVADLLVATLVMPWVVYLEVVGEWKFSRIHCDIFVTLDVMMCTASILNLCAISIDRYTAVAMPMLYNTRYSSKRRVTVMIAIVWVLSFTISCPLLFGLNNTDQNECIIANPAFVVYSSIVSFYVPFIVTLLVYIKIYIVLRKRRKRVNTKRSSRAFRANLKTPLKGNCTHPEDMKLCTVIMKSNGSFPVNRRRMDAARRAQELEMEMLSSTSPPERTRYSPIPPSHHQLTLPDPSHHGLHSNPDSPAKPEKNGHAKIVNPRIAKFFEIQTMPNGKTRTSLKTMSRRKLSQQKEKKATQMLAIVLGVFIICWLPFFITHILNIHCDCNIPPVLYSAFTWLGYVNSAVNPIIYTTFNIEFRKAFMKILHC

| SMILES | Ki (dopamine D-2 receptor) | Intrinsic Activity (adenylate cyclase assay) (dopamine D-1 receptor [1]) | EC50 (dopamine D-1 receptor [1]) | Ki (dopamine D-1 receptor [2]) |
| --- | --- | --- | --- | --- |
| NC[C@H]1C[C@@H](c2cccc(O)c2)Cc2c1ccc(O)c2O (relative stereo) [Example 42] | 3.9 µM | 98 | 0.006 µM | 0.061 µM |
| NC[C@H]1C[C@@H](c2ccc3ccccc3c2)Cc2c1ccc(O)c2O (relative stereo) [Example 43] | 12 µM | 70 | 0.15 µM | 2.4 µM |
| COc1ccc(OC[C@H]2Cc3c(ccc(O)c3O)[C@@H](CN)O2)cc1 (relative stereo) [Example 53] | 0.65 µM | 67 | 0.023 µM | 0.25 µM |
| NC[C@H]1O[C@@H](COc2ccccc2-c2ccccc2)Cc2c1ccc(O)c2O (relative stereo) [Example 56] | 1.3 µM | 46 | 0.43 µM | 2.2 µM |
| CC(C)(C)c1ccc(OC[C@H]2Cc3c(ccc(O)c3O)[C@@H](CN)O2)cc1 (relative stereo) [Example 57] | 0.73 µM | 56 | 0.03 µM | 1.1 µM |
| NC[C@@H]1O[C@H](COc2ccc(Br)cc2)Cc2c1ccc(O)c2O (relative stereo) [Example 58] | 1.2 µM | 63 | 0.019 µM | 0.26 µM |
| NC[C@@H]1O[C@H](Cc2ccccc2)Cc2c1ccc(O)c2O (relative stereo) [Example 60] | 2.2 µM | 93 | 0.037 µM | 0.53 µM |
| NC[C@@H]1O[C@H](CCc2ccccc2)Cc2c1ccc(O)c2O (relative stereo) [Example 61] | 1.3 µM | 76 | 0.006 µM | 0.29 µM |
| NC[C@@H]1O[C@H](c2ccccc2)Cc2c1cc(Br)c(O)c2O (relative stereo) [Example 62] | 3.7 µM | 111 | 0.17 µM | 0.21 µM |
| NC[C@@H]1O[C@H](C2CCCCC2)Cc2c1ccc1c2OC2(CCCCC2)O1 (relative stereo) [Example 63] | > 10 µM | 43 | 0.71 µM | 71 µM |
| CCCCCCCCCC[C@@H]1Cc2c(ccc(O)c2O)[C@H](CN)O1 (relative stereo) [Example 65] | 16 µM | 91 | 0.32 µM | 14 µM |
| CCCCCC[C@@H]1Cc2c(ccc(O)c2O)[C@H](CN)O1 (relative stereo) [Example 68] | 5.5 µM | 90 | 0.014 µM | 0.1 µM |
| NC[C@@H]1O[C@H](c2ccc(Br)cc2)Cc2c1ccc(O)c2O (relative stereo) [Example 69] | 2.7 µM | 108 | 0.072 µM | 0.087 µM |
| C=CCC[C@@H]1Cc2c(ccc(O)c2O)[C@H](CN)O1 (relative stereo) [Example 73] | 34 µM | 138 | 0.16 µM | 0.064 µM |
| NC[C@@H]1O[C@H](COCc2ccccc2)Cc2c1ccc(O)c2O (relative stereo) [Example 75] | 4.6 µM | 60 | 0.29 µM | 0.48 µM |
| NC[C@@H]1O[C@H](CC2CCCC2)Cc2c1ccc(O)c2O (relative stereo) [Example 78] | 0.81 µM | 147 | 0.015 µM | 0.049 µM |
| CCCC[C@@H]1Cc2c(ccc(O)c2O)[C@H](CN)O1 (relative stereo) [Example 79] | 0.92 µM | 151 | 0.007 µM | 0.73 µM |
| NC[C@@H]1O[C@H](c2ccc(I)cc2)Cc2c1ccc(O)c2O (relative stereo) [Example 80] | 1.1 µM | 161 | 0.008 µM | 0.014 µM |
| NC[C@@H]1O[C@H](C2CCCCC2)Cc2c1cc(Br)c(O)c2O (relative stereo) [Example 81] | 4.6 µM | 61 | 0.067 µM | 0.21 µM |

| SMILES | Ki (dopamine D-2 receptor) | Intrinsic Activity (adenylate cyclase assay) (dopamine D-1 receptor [1]) | EC50 (dopamine D-1 receptor [1]) | Ki (dopamine D-1 receptor [2]) |
| --- | --- | --- | --- | --- |
| COc1cccc([C@@H]2Cc3c(ccc(O)c3O)[C@H](CN)O2)c1 (relative stereo) [Example 82] | 0.82 µM | 107 | 0.007 µM | 0.011 µM |
| NC[C@@H]1O[C@H](CN2Cc3ccccc3C2=O)Cc2c1ccc(O)c2O (relative stereo) [Example 87] | 0.7 µM | 54 | 0.05 µM | 11 µM |
| NC[C@@H]1O[C@H](CCC2CCCCC2)Cc2c1ccc(O)c2O (relative stereo) [Example 91] | > 10 µM | 135 | 0.67 µM | 0.29 µM |
| CCOC(=O)CC(=O)NC[C@@H]1Cc2c(ccc(O)c2O)[C@H](CN)O1 (relative stereo) [Example 92] | 5.4 µM | 69 | 0.6 µM | 1.5 µM |
| NC[C@H]1O[C@@H](c2ccc(C(F)(F)F)cc2)Cc2c1ccc(O)c2O (relative stereo) [Example 98] | 1.9 µM | 108 | 0.018 µM | 0.22 µM |
| NC[C@H]1O[C@@H](c2cccc(C(F)(F)F)c2)Cc2c1ccc(O)c2O (relative stereo) [Example 99] | 8.9 µM | 134 | 0.005 µM | 0.022 µM |
| Oc1ccc2c(c1O)C[C@H](C1CCCCC1)O[C@@H]2CNC1CC1 (relative stereo) [Example 114] | 0.9 µM | 60 | 0.06 µM | 0.42 µM |
| Oc1ccc2c(c1O)C[C@H](C1CCCCC1)O[C@@H]2CN1CCCC1 (relative stereo) [Example 115] | 3 µM | 68 | 2.2 µM | 12 µM |
| C=CCNC[C@H]1O[C@@H](C23CC4CC(CC(C4)C2)C3)Cc2c1ccc(O)c2O (relative stereo) [Example 117] | 1 µM | 60 | 0.08 µM | 1.2 µM |
| C#CCNC[C@H]1O[C@@H](C2CCCCC2)Cc2c1ccc(O)c2O (relative stereo) [Example 118] | 6.7 µM | 87 | 0.056 µM | 2.5 µM |
| C=CCNC[C@H]1O[C@@H](CCCC)Cc2c1ccc(O)c2O (relative stereo) [Example 125] | > 10 µM | 63 | 1 µM | 2.7 µM |
| C=CCC[C@H]1Cc2c(ccc(O)c2O)[C@@H](CNC)O1 (relative stereo) [Example 132] | 0.64 µM | 106 | 0.87 µM | 0.086 µM |
| CCCC1(CCC)C=C(CN)c2ccc(O)c(O)c2C1 [Example 192] | > 10 µM |  |  | 3.2 µM |
| CCCC1(CCC)Cc2c(ccc(O)c2O)C2=C1CCNC2 [Example 208] | 3.1 µM |  |  | 0.53 µM |
| CC(C)(C)CC1C=C(CN)c2ccc(O)c(O)c2C1 (stereo not drawn) [Example 233] | > 10 µM |  |  | 3.2 µM |
| Oc1ccc2c(c1O)CC(C13CC4CC(CC(C4)C1)C3)C1=C2CNCC1 (stereo not drawn) [Example 238] | > 10 µM |  |  | 5.1 µM |
| CC(C)(C)CC1Cc2c(ccc(O)c2O)C2=C1CCNC2 (stereo not drawn) [Example 242] | 2 µM |  |  | 1.5 µM |
| CN1CCC2=C(C1)c1ccc(O)c(O)c1CC2CC1CCCC1 (stereo not drawn) [Example 245] | 0.18 µM |  |  | 0.35 µM |
| CN1CCC2=C(C1)c1ccc(O)c(O)c1CC21CCCCCCCC1 [Example 248] | 0.88 µM |  |  | 0.58 µM |
